The target of this assay is T1, CYP81A24 (Echinochloa phyllopogon, UniProt R4WC97).
T1 construct: expressed in E. coli C41(DE3) from pET28 with co-expressed Arabidopsis ATR2 reductase (pCDF, with HemA) and pGro7 chaperonin
T1 sequence (R4WC97 1-515): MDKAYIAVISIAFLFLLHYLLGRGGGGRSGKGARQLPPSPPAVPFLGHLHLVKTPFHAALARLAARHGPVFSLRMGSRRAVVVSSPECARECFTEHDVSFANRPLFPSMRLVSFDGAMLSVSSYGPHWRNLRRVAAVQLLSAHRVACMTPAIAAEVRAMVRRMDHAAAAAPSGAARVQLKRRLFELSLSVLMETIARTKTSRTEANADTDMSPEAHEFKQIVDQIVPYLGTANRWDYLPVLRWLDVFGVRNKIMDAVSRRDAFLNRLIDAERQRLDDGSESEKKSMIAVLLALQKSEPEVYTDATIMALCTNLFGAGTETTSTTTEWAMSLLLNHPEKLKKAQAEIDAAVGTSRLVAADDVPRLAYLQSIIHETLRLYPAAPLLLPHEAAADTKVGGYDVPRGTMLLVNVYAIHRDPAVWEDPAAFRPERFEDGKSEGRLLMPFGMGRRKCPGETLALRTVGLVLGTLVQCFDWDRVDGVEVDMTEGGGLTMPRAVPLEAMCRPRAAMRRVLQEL
The assay is described as follows: E. coli whole-cell metabolism, LC-MS/MS MRM m/z […] to […]. The assay is classed as cell-based. The following applies: 0.2 mM quinclorac, 24 h, 30 °C; co-expressed ATR2 reductase; putative hydroxylated product, no authentic standard.

Molecules are shown by their SMILES.

Turning to `O=C(O)c1c(Cl)ccc2cc(Cl)cnc12` [quinclorac], the “E. coli whole-cell metabolism, LC-MS/MS MRM m/z 258 to 177” value is “identified in the culture solution of E. coli with CYP81A12, CYP81A21, and CYP81A24”.

Source of the values: paper PMC13329992, “Catalytic Promiscuity Underpins Metabolic Resistance to Auxinic Herbicides in Echinochloa phyllopogon” (Journal of Agricultural and Food Chemistry, 2026).
